Patent US5041567A, “Antibacterial monic acid derivatives” (Beecham Group plc, priority 1982, dated 1991)
In brackets after ≈: the same amount, converted by molar mass. Read-outs that look alike come from different tables or passages of the source.

What was measured:
Strep. faecalis I = test: MIC against human bacteria in vitro; type: cell-based; conditions: Enterococcus faecalis; Strep. faecalis I; 5% chocolated horse blood agar, 18 hours; read-out: MIC
[1] = test system: Corynebacterium pyogenes CY1; test: MIC against veterinary bacteria in vitro; conditions: CY1, 18 h
Procedure: (§1) The activity of the compounds of the Examples against various veterinarily important bacteria, was assayed in vitro using two-fold serial dilutions in Diagnostic Sensitivity Test Agar inoculated with 10^4 organisms.

M. bovis NCTC 10131 = test: microbe, parasite or virus in culture; type: cell-based; conditions: NCTC10131, 144 h
[2] = test system: Erysipelothrix rhusiopathiae NCTC 8163; test: MIC against veterinary bacteria in vitro; conditions: Erysipelothrix rhusiopathiae, NCTC8163, 18 h
Procedure: as §1

M. suipneumoniae LABER = test: MIC against mycoplasma in vitro; type: cell-based; conditions: Mesomycoplasma hyopneumoniae, 144 h
M. suipneumoniae HK(2) = test: MIC against mycoplasma in vitro; type: cell-based; conditions: Mesomycoplasma hyopneumoniae, 144 h
S. typhimurium S18 = test: MIC against veterinary bacteria in vitro; conditions: Salmonella enterica, TYPHIMURIUM, 18 h
Procedure: as §1

Bord. bronchiseptica B09 = test: MIC against veterinary bacteria in vitro; conditions: Bordetella bronchiseptica, B09, 18 h
Procedure: as §1

Strep. dysgalactiae SPD1 = test: MIC against veterinary bacteria in vitro; conditions: Streptococcus dysgalactiae, SPD1, 18 h
Procedure: as §1

Strep. spp. 64/848-C = test: MIC against human bacteria in vitro; type: cell-based; conditions: Strep. spp. 64/848-C; 5% chocolated horse blood agar, 18 hours; read-out: MIC
E. coli ESS = test: MIC against human bacteria in vitro; type: cell-based; conditions: Escherichia coli; E. coli ESS; 5% chocolated horse blood agar, 18 hours; read-out: MIC
Bord. bronchiseptica B08 = test: MIC against veterinary bacteria in vitro; conditions: Bordetella bronchiseptica, B08, 18 h
Procedure: as §1

Bacillus subtilis 6633 = test: MIC against human bacteria in vitro; type: cell-based; conditions: Bacillus subtilis 6633; 5% chocolated horse blood agar, 18 hours; read-out: MIC
Staph. aureus Oxford = test: MIC against veterinary bacteria in vitro; conditions: Staphylococcus aureus, 18 h
Procedure: as §1

[3] = test system: Staph. aureus B4 (pen. resistant); test: MIC against veterinary bacteria in vitro; conditions: Staphylococcus aureus, 18 h
Procedure: as §1

Strep. uberis SPU1 = test: MIC against veterinary bacteria in vitro; conditions: Streptococcus uberis, SPU1, 18 h
Procedure: as §1

M. pneumoniae ATCC 15492 = test: MIC against mycoplasma in vitro; type: cell-based; conditions: Mycoplasmoides pneumoniae, ATCC15492, 144 h
M. hyorhinis ATCC 23234 = test: MIC against mycoplasma in vitro; type: cell-based; conditions: Mesomycoplasma hyorhinis, ATCC23234, 144 h
K. aerogenes A = test: MIC against human bacteria in vitro; type: cell-based; conditions: Klebsiella aerogenes; K. aerogenes A; 5% chocolated horse blood agar, 18 hours; read-out: MIC
[4] = test system: Pasteurella multocida 1633; test: MIC against human bacteria in vitro; type: cell-based
[5] = test system: M. hyosynoviae ATCC 25591; test: MIC against mycoplasma in vitro; type: cell-based; conditions: 144 h
[6] = test system: M. suipneumoniae J2206/183^b; test: MIC against mycoplasma in vitro; type: cell-based; conditions: Mesomycoplasma hyopneumoniae, 144 h
[7] = test system: Haemophilus influenzae Q1; test: MIC against human bacteria in vitro; type: cell-based; conditions: Haemophilus influenzae Q1; 5% chocolated horse blood agar, 18 hours; read-out: MIC
[8] = M. suipneumoniae LABER, 6 days, 37° C., read-out: MIC
[9] = M. hyorhinis ATCC 23234, 6 days, 37° C., read-out: MIC
[10] = Pasteurella multocida 1633, 5% chocolated horse blood agar, 18 hours, read-out: MIC
[11] = M. hyosynoviae ATCC 25591, 6 days, 37° C., read-out: MIC
[12] = M. suipneumoniae J2206/183^b, 6 days, 37° C., read-out: MIC

Structure (SMILES) | MIC (Strep. faecalis I) | MIC [1] | MIC (M. bovis NCTC 10131) | MIC [2] | MIC (M. suipneumoniae LABER; [8]) | MIC (S. typhimurium S18) | MIC (Bord. bronchiseptica B09) | MIC (Strep. dysgalactiae SPD1) | MIC (Strep. spp. 64/848-C) | MIC (E. coli ESS) | MIC (Bord. bronchiseptica B08) | MIC (Bacillus subtilis 6633) | MIC (Staph. aureus Oxford) | MIC [3] | MIC (Strep. uberis SPU1) | MIC (K. aerogenes A) | MIC [4, 10] | MIC [5, 11] | MIC [6, 12] | MIC (M. pneumoniae ATCC 15492) | also measured
C/C(=C\c1cc(-c2ccccc2)no1)C[C@@H]1OC[C@H](C[C@@H]2O[C@H]2[C@@H](C)[C@H](C)O)[C@@H](O)[C@H]1O [Example 31, 5-(1-Normon-2-yl)-3-phenylisoxazole A] | > 128 µg/mL | > 80 µg/mL | 1 µg/mL (≈ 2.25 µM) | > 80 µg/mL | 10 µg/mL (≈ 22.5 µM) | > 80 µg/mL | 80 µg/mL (≈ 180 µM) | > 80 µg/mL | > 128 µg/mL | 64 µg/mL (≈ 144 µM) | > 80 µg/mL | 64 µg/mL (≈ 144 µM) | 20 µg/mL (≈ 45.1 µM) | 10 µg/mL (≈ 22.5 µM) | 40 µg/mL (≈ 90.2 µM) | > 128 µg/mL | 64 µg/mL (≈ 144 µM) | 10 µg/mL (≈ 22.5 µM) | 10 µg/mL (≈ 22.5 µM) | – | MIC (M. suipneumoniae HK(2); M. suipneumoniae HK(2), 6 days, 37° C., read-out: MIC): 10 µg/mL (≈ 22.5 µM); MIC (M. pneumoniae ATCC 15492; M. pneumoniae ATCC 15492, 6 days, 37° C., read-out: MIC): > 10 µg/mL; MIC (M. hyorhinis ATCC 23234; [9]): 5 µg/mL (≈ 11.3 µM)
C/C(=C\c1ncc(CCCCCCCCO)o1)C[C@@H]1OC[C@H](C[C@@H]2O[C@H]2[C@@H](C)[C@H](C)O)[C@@H](O)[C@H]1O [Example 19, 5-(8-Hydroxyoctyl)-2-(1-normon-2-yl) oxazole A] | > 128 µg/mL | > 80 µg/mL | 0.025 µg/mL (≈ 0.0504 µM) | > 80 µg/mL | – | > 80 µg/mL | 20 µg/mL (≈ 40.4 µM) | 2.5 µg/mL (≈ 5.04 µM) | 16 µg/mL (≈ 32.3 µM) | 16 µg/mL (≈ 32.3 µM) | > 80 µg/mL | 4 µg/mL (≈ 8.07 µM) | 2.5 µg/mL (≈ 5.04 µM) | 1.25 µg/mL (≈ 2.52 µM) | 0.625 µg/mL (≈ 1.26 µM) | > 128 µg/mL | 32 µg/mL (≈ 64.6 µM) | 0.5 µg/mL (≈ 1.01 µM) | 5 µg/mL (≈ 10.1 µM) | 1 µg/mL (≈ 2.02 µM) | MIC (M. suipneumoniae LABER): 1 µg/mL (≈ 2.02 µM); MIC (M. suipneumoniae HK(2)): 2.5 µg/mL (≈ 5.04 µM); MIC (M. hyorhinis ATCC 23234): 1 µg/mL (≈ 2.02 µM)
C/C(=C\c1ncc(-c2ccc(Br)cc2)o1)C[C@@H]1OC[C@H](C[C@@H]2O[C@H]2[C@@H](C)[C@H](C)O)[C@@H](O)[C@H]1O [Example 18, 5-p-Bromophenyl-2-(1-normon-2-yl) oxazole A] | > 128 µg/mL | > 80 µg/mL | 0.05 µg/mL (≈ 0.0957 µM) | 40 µg/mL (≈ 76.6 µM) | – | > 80 µg/mL | 10 µg/mL (≈ 19.1 µM) | 0.156 µg/mL (≈ 0.299 µM) | 4 µg/mL (≈ 7.66 µM) | 8 µg/mL (≈ 15.3 µM) | 40 µg/mL (≈ 76.6 µM) | 1 µg/mL (≈ 1.91 µM) | 0.625 µg/mL (≈ 1.2 µM) | 0.156 µg/mL (≈ 0.299 µM) | < 0.039 µg/mL | > 128 µg/mL | 16 µg/mL (≈ 30.6 µM) | 0.5 µg/mL (≈ 0.957 µM) | – | 1 µg/mL (≈ 1.91 µM) | MIC (M. suipneumoniae LABER): 0.25 µg/mL (≈ 0.479 µM); MIC (M. suipneumoniae HK(2)): 1 µg/mL (≈ 1.91 µM); MIC (M. hyorhinis ATCC 23234): 0.25 µg/mL (≈ 0.479 µM); MIC [6]: 1 µg/mL (≈ 1.91 µM)
C/C(=C\c1ncc(-c2cccc(C#N)c2)o1)C[C@@H]1OC[C@H](C[C@@H]2O[C@H]2[C@@H](C)[C@H](C)O)[C@@H](O)[C@H]1O [Example 5, 5-m-cyanophenyl-2-(1-normon-2-yl)oxazole A] | 50 µg/mL (≈ 107 µM) | 80 µg/mL (≈ 171 µM) | ≤ 0.01 µg/mL | 80 µg/mL (≈ 171 µM) | 0.05 µg/mL (≈ 0.107 µM) | > 80 µg/mL | 40 µg/mL (≈ 85.4 µM) | 0.312 µg/mL (≈ 0.666 µM) | – | 1.2 µg/mL (≈ 2.56 µM) | 80 µg/mL (≈ 171 µM) | 1.2 µg/mL (≈ 2.56 µM) | 0.625 µg/mL (≈ 1.33 µM) | 1.25 µg/mL (≈ 2.67 µM) | 0.07 µg/mL (≈ 0.149 µM) | > 50 µg/mL | – | – | 0.1 µg/mL (≈ 0.213 µM) | 0.25 µg/mL (≈ 0.534 µM) | MIC (M. hyorhinis ATCC 23234; [9]): 0.05 µg/mL (≈ 0.107 µM); MIC ([4]; Pasteurella multocida, 1633, 18 h): 5 µg/mL (≈ 10.7 µM); MIC [7]: 1.2 µg/mL (≈ 2.56 µM); MIC [5]: 0.25 µg/mL (≈ 0.534 µM)
